Test: Pharmacokinetics (plasma and urine) of ascending multiple oral doses in healthy volunteers
Format: in vivo, human
Design: Cmax: unit: ng/mL
Settings: for AUC(0-∞) / Cmax / Ctrough / RA (ratio of accumulation) / t1/2 / Tmax: Day 14 (N = 8); for AUC(0-∞) / Cmax / Ctrough / RA (ratio of accumulation) / t1/2 / AUC(0-τ): geometric mean; for Tmax: median; for AUC(0-τ): Day 14, τ = 24 hours (N = 8)
From the text: Subjects: Forty healthy male and female subjects between the ages of 20 and 50 were enrolled in the study. All subjects were in good health as determined by a medical history, physical examination, 12-lead ECG, serum biochemistry, hematology, urinalysis and virology. Subjects were not permitted to take any prescribed medication within 30 days or non-prescribed medication within 7 days of the first dose administration.
Study Design: This study was a randomized, double-blind, placebo-controlled, ascending-dose trial to evaluate the safety, tolerability and pharmacokinetics (PK) of multiple oral doses of Compound I. Subjects were enrolled into 1 of the 4 cohorts, 10 subjects per cohort (active:placebo=8:2). Subjects received a multiple oral dose of 25, 50, 100, or 200 mg unformulated Compound I in a capsule, or matching placebo, once daily (QD) for 14 days.
Assessments: Safety and tolerability were assessed by adverse event (AE) monitoring, clinical laboratory testing, vital sign measurement, 12-lead ECG measurement, concomitant medication assessment, and physical examination. Blood and urine samples were collected to assess the PK profile of Compound I and the S-cis isomer of Compound I. Blood samples (˜5 mL) for plasma PK analysis were collected in K2-EDTA vacutainer tubes to yield approximately 2 mL of plasma at each of the following time points: (i) Day 1: before dosing, and 0.25, 0.5, 1, 1.5, 2, 2.5, 3, 4, 6, 8, 10, 12, 16, and 24 hours after dosing; (ii) Day 3 to Day 9: before dosing; (iii) Day 10: before dosing, and 0.25, 0.5, 1, 1.5, 2, 2.5, 3, 4, 6, 8, 10, 12, and 16 hours after dosing; (iv) Day 11 to Day 13: before dosing; (v) Day 14: before dosing, and 0.25, 0.5, 1, 1.5, 2, 2.5, 3, 4, 6, 8, 10, 12, 16, 24, 48, 72, 96, 120, 144, and 168 hours after dosing. Urine samples for the PK analysis were collected as a single block at: (i) Day 1: before dosing (spot collection), 0 to 8, 8 to 16, and 16 to 24 hours after dosing; and (ii) Day 14: 0 to 8, 8 to 16, and 16 to 24 hours after dosing. Both plasma and urine concentrations of Compound I and its S-cis isomer were measured using validated liquid chromatography-tandem mass spectrometry (LC/MS/MS).
Data Analysis: Safety data were summarized using descriptive statistics by treatment. PK parameters for Compound I and its S-cis isomer were calculated using non-compartmental analysis using WinNonlin (Version 5.0.1 or greater; Pharsight Corporation, Mountain View, Calif.). Dose proportionality and dose independence were evaluated by visual inspection. Intra-subject variability was assessed using an ANOVA model using data from Days 10 and 14.

[1] = S-cis isomer in plasma after Compound I 25 mg QD
[2] = S-cis isomer in plasma after Compound I 50 mg QD
[3] = S-cis isomer in plasma after Compound I 100 mg QD
[4] = S-cis isomer in plasma after Compound I 200 mg QD

AUC(0-∞) [1]: 180.14 ng·h/mL | Cmax [1]: 5.43 ng/mL | Ctrough [1]: 2.33 ng/mL | RA (ratio of accumulation) [1]: 2.02 | t1/2 [1]: 28.82 h | Tmax [1]: 2.5 h | AUC(0-τ) [1]: 78.40 ng·h/mL | AUC(0-∞) [2]: 365.88 ng·h/mL | Cmax [2]: 11.61 ng/mL | Ctrough [2]: 4.93 ng/mL | RA (ratio of accumulation) [2]: 2.28 | t1/2 [2]: 25.39 h | Tmax [2]: 3.0 h | AUC(0-τ) [2]: 177.01 ng·h/mL | AUC(0-∞) [3]: 541.06 ng·h/mL | Cmax [3]: 14.87 ng/mL | Ctrough [3]: 7.14 ng/mL | RA (ratio of accumulation) [3]: 1.88 | t1/2 [3]: 28.17 h | Tmax [3]: 2.5 h | AUC(0-τ) [3]: 237.26 ng·h/mL | AUC(0-∞) [4]: 804.07 ng·h/mL | Cmax [4]: 27.69 ng/mL | Ctrough [4]: 10.90 ng/mL | RA (ratio of accumulation) [4]: 1.50 | t1/2 [4]: 23.93 h | Tmax [4]: 2.5 h | AUC(0-τ) [4]: 404.33 ng·h/mL | systemic exposure relative to that of Compound I (after Compound I QD dosing): about 2%
SMILES: OC1CCC(Nc2ncc3nc(Nc4c(F)cc(F)cc4F)n(C4CCOC4)c3n2)CC1 (stereo not drawn) [S-cis isomer of Compound I]
